Data: US9353094B2, “Substituted quinoxalines as kinase inhibitors” (BOARD OF REGENTS OF THE UNIVERSITY OF NEBRASKA, priority 2010, dated 2016)

Tested on: panel of cancer cell lines
Test: Growth inhibition assay, whole panel
Assay type: cell-based, human
Details: 20 μM, 72 h
Description: (§1) The compounds were screened in a growth inhibition assay at 20 μM over a 72 h period in a panel of cancer cell lines (lung-A549; pancreatic-Aspc1; colon-HT29; breast-MDAMB231; prostate-PC3; ovarian-SKOV3 and bone-U2OS) and the results are summarized in Table 2. […] This size effect was also observed with the urea compounds from the secondary amine (6j vs. 6l and 6k vs. 6m).
(§2) Cell Growth Inhibition Assay. Human lung A549, human pancreatic AsPC1, human colorectal HT-29, human breast MDA-MB-231, human prostate PC3, human ovarian SKOV3, and human osteosarcoma U2OS tumor cell lines were cultured in basal media containing 10% FBS and maintained in a 37° C. incubator with 5% CO2. All compounds were screened in 96 well microtiter plate format. In general, each cell line was plated at optimal assay density in 95 μl of propagation media in 96 well plates and incubated overnight. The next day, a standard alamar blue assay was performed (see below) on representative wells of each cell line for a Tz calculation. Subsequently, cells were treated in duplicate with a 5 μl volume of either vehicle only, positive controls etoposide and taxol, or test compounds at 20 μM (highest soluble compound concentration). The treated cells were incubated for 72 h and then assayed for growth by alamar blue assay. Briefly, 10 μl of reagent was added to each well and the plates returned to 37° C. After 3 h, fluorescence at 544ex/590em was measured using a SpectraMax M5 (Molecular Devices) plate reader. Growth is represented as a percentage of the control cells that were treated with vehicle only and % growth inhibition was determined using the NCI algorithm: Tz=number of untreated cells at zero time, C=Number of control cells at 72 h time, and T=number of compound treated cells at 72 h time; 100*([T−Tz]/[C−Tz]).

Compound	growth inhibition of the various cancer cell lines (in words)
CC(=O)Nc1ccc2nc(C)c(C)nc2c1 [5a]	inhibited growth
CC(=O)Nc1ccc2nc(-c3ccco3)c(-c3ccco3)nc2c1 [5b]	inhibited growth
O=C(Nc1ccccc1)Nc1ccc2nc(-c3ccco3)c(-c3ccco3)nc2c1 [5f]	inhibited growth

Tested on: human pancreatic AsPC1 tumor cell line
Test: Cell growth inhibition assay (alamar blue)
Assay type: cell-based
Details: AsPC1, 20 μM, 72 h
Description: as §1, §2

Compound	% Growth inhibition at 20 μM
CC(=O)Nc1ccc2nc(C)c(C)nc2c1 [5a]	26.2 ± 2.8%
CC(=O)Nc1ccc2nc(-c3ccco3)c(-c3ccco3)nc2c1 [5b]	Inactive
CC(=O)Nc1ccc2nc(-c3cccs3)c(-c3cccs3)nc2c1 [5c]	Inactive
CC(=O)Nc1ccc2nc(-c3ccccc3)c(-c3ccccc3)nc2c1 [5d]	Inactive
Cc1nc2ccc(NC(=O)Nc3ccccc3)cc2nc1C [5e]	Inactive
O=C(Nc1ccccc1)Nc1ccc2nc(-c3ccco3)c(-c3ccco3)nc2c1 [5f]	9.6 ± 6.6%
O=C(Nc1ccccc1)Nc1ccc2nc(-c3cccs3)c(-c3cccs3)nc2c1 [5g]	Inactive
O=C(Nc1ccccc1)Nc1ccc2nc(-c3ccccc3)c(-c3ccccc3)nc2c1 [5h]	Inactive
Cc1ccc(S(=O)(=O)N(c2ccc3nc(-c4ccco4)c(-c4ccco4)nc3c2)S(=O)(=O)c2ccc(C)cc2)cc1 [5j]	Inactive
Cc1ccc(S(=O)(=O)N(c2ccc3nc(-c4cccs4)c(-c4cccs4)nc3c2)S(=O)(=O)c2ccc(C)cc2)cc1 [5k]	Inactive
Cc1ccc(S(=O)(=O)Nc2ccc3nc(-c4ccccc4)c(-c4ccccc4)nc3c2)cc1 [5l]	Inactive

Tested on: human ovarian SKOV3 tumor cell line
Test: Cell growth inhibition assay (alamar blue)
Assay type: cell-based
Details: SKOV3, 20 μM, 72 h
Description: as §1, §2

Compound	% Growth inhibition at 20 μM
CC(=O)Nc1ccc2nc(C)c(C)nc2c1 [5a]	4.0 ± 3.6%
CC(=O)Nc1ccc2nc(-c3ccco3)c(-c3ccco3)nc2c1 [5b]	9.0 ± 3.4%
CC(=O)Nc1ccc2nc(-c3cccs3)c(-c3cccs3)nc2c1 [5c]	Inactive
CC(=O)Nc1ccc2nc(-c3ccccc3)c(-c3ccccc3)nc2c1 [5d]	Inactive
Cc1nc2ccc(NC(=O)Nc3ccccc3)cc2nc1C [5e]	Inactive
O=C(Nc1ccccc1)Nc1ccc2nc(-c3ccco3)c(-c3ccco3)nc2c1 [5f]	24.7 ± 1.1%
O=C(Nc1ccccc1)Nc1ccc2nc(-c3cccs3)c(-c3cccs3)nc2c1 [5g]	Inactive
O=C(Nc1ccccc1)Nc1ccc2nc(-c3ccccc3)c(-c3ccccc3)nc2c1 [5h]	Inactive
Cc1ccc(S(=O)(=O)N(c2ccc3nc(-c4ccco4)c(-c4ccco4)nc3c2)S(=O)(=O)c2ccc(C)cc2)cc1 [5j]	Inactive
Cc1ccc(S(=O)(=O)N(c2ccc3nc(-c4cccs4)c(-c4cccs4)nc3c2)S(=O)(=O)c2ccc(C)cc2)cc1 [5k]	Inactive
Cc1ccc(S(=O)(=O)Nc2ccc3nc(-c4ccccc4)c(-c4ccccc4)nc3c2)cc1 [5l]	Inactive

Tested on: human colorectal HT-29 tumor cell line
Test: Cell growth inhibition assay (alamar blue)
Assay type: cell-based
Details: HT29, 20 μM, 72 h
Description: as §1, §2

Compound	% Growth inhibition at 20 μM
CC(=O)Nc1ccc2nc(C)c(C)nc2c1 [5a]	31.7 ± 2.8%
CC(=O)Nc1ccc2nc(-c3ccco3)c(-c3ccco3)nc2c1 [5b]	7.6 ± 5.1%
CC(=O)Nc1ccc2nc(-c3cccs3)c(-c3cccs3)nc2c1 [5c]	Inactive
CC(=O)Nc1ccc2nc(-c3ccccc3)c(-c3ccccc3)nc2c1 [5d]	Inactive
Cc1nc2ccc(NC(=O)Nc3ccccc3)cc2nc1C [5e]	Inactive
O=C(Nc1ccccc1)Nc1ccc2nc(-c3ccco3)c(-c3ccco3)nc2c1 [5f]	52.1 ± 11.6%
O=C(Nc1ccccc1)Nc1ccc2nc(-c3cccs3)c(-c3cccs3)nc2c1 [5g]	Inactive
O=C(Nc1ccccc1)Nc1ccc2nc(-c3ccccc3)c(-c3ccccc3)nc2c1 [5h]	Inactive
Cc1ccc(S(=O)(=O)N(c2ccc3nc(-c4ccco4)c(-c4ccco4)nc3c2)S(=O)(=O)c2ccc(C)cc2)cc1 [5j]	Inactive
Cc1ccc(S(=O)(=O)N(c2ccc3nc(-c4cccs4)c(-c4cccs4)nc3c2)S(=O)(=O)c2ccc(C)cc2)cc1 [5k]	Inactive
Cc1ccc(S(=O)(=O)Nc2ccc3nc(-c4ccccc4)c(-c4ccccc4)nc3c2)cc1 [5l]	Inactive

Tested on: human breast MDA-MB-231 tumor cell line
Test: Cell growth inhibition assay (alamar blue)
Assay type: cell-based
Details: MDA-MB-231, 20 μM, 72 h
Description: as §1, §2

Compound	% Growth inhibition at 20 μM
CC(=O)Nc1ccc2nc(C)c(C)nc2c1 [5a]	25.7 ± 5.1%
CC(=O)Nc1ccc2nc(-c3ccco3)c(-c3ccco3)nc2c1 [5b]	20.3 ± 5.9%
CC(=O)Nc1ccc2nc(-c3cccs3)c(-c3cccs3)nc2c1 [5c]	Inactive
CC(=O)Nc1ccc2nc(-c3ccccc3)c(-c3ccccc3)nc2c1 [5d]	Inactive
Cc1nc2ccc(NC(=O)Nc3ccccc3)cc2nc1C [5e]	Inactive
O=C(Nc1ccccc1)Nc1ccc2nc(-c3ccco3)c(-c3ccco3)nc2c1 [5f]	31.3 ± 10.7%
O=C(Nc1ccccc1)Nc1ccc2nc(-c3cccs3)c(-c3cccs3)nc2c1 [5g]	Inactive
O=C(Nc1ccccc1)Nc1ccc2nc(-c3ccccc3)c(-c3ccccc3)nc2c1 [5h]	Inactive
Cc1ccc(S(=O)(=O)N(c2ccc3nc(-c4ccco4)c(-c4ccco4)nc3c2)S(=O)(=O)c2ccc(C)cc2)cc1 [5j]	Inactive
Cc1ccc(S(=O)(=O)N(c2ccc3nc(-c4cccs4)c(-c4cccs4)nc3c2)S(=O)(=O)c2ccc(C)cc2)cc1 [5k]	Inactive
Cc1ccc(S(=O)(=O)Nc2ccc3nc(-c4ccccc4)c(-c4ccccc4)nc3c2)cc1 [5l]	Inactive

Tested on: human osteosarcoma U2OS tumor cell line
Test: Cell growth inhibition assay (alamar blue)
Assay type: cell-based
Details: 72 h
Description: as §1, §2

Compound	% Growth inhibition at 20 μM
CC(=O)Nc1ccc2nc(C)c(C)nc2c1 [5a]	31.4 ± 3.6%
CC(=O)Nc1ccc2nc(-c3ccco3)c(-c3ccco3)nc2c1 [5b]	Inactive
CC(=O)Nc1ccc2nc(-c3cccs3)c(-c3cccs3)nc2c1 [5c]	Inactive
CC(=O)Nc1ccc2nc(-c3ccccc3)c(-c3ccccc3)nc2c1 [5d]	Inactive
Cc1nc2ccc(NC(=O)Nc3ccccc3)cc2nc1C [5e]	Inactive
O=C(Nc1ccccc1)Nc1ccc2nc(-c3ccco3)c(-c3ccco3)nc2c1 [5f]	59.6 ± 1.6%
O=C(Nc1ccccc1)Nc1ccc2nc(-c3cccs3)c(-c3cccs3)nc2c1 [5g]	Inactive
O=C(Nc1ccccc1)Nc1ccc2nc(-c3ccccc3)c(-c3ccccc3)nc2c1 [5h]	Inactive
Cc1ccc(S(=O)(=O)N(c2ccc3nc(-c4ccco4)c(-c4ccco4)nc3c2)S(=O)(=O)c2ccc(C)cc2)cc1 [5j]	Inactive
Cc1ccc(S(=O)(=O)N(c2ccc3nc(-c4cccs4)c(-c4cccs4)nc3c2)S(=O)(=O)c2ccc(C)cc2)cc1 [5k]	Inactive
Cc1ccc(S(=O)(=O)Nc2ccc3nc(-c4ccccc4)c(-c4ccccc4)nc3c2)cc1 [5l]	Inactive

Tested on: human lung A549 tumor cell line
Test: Cell growth inhibition assay (alamar blue)
Assay type: cell-based
Details: A549, 20 μM, 72 h
Description: as §1, §2

Compound	% Growth inhibition at 20 μM
CC(=O)Nc1ccc2nc(C)c(C)nc2c1 [5a]	23.4 ± 3.3%
CC(=O)Nc1ccc2nc(-c3ccco3)c(-c3ccco3)nc2c1 [5b]	57.8 ± 7.0%
CC(=O)Nc1ccc2nc(-c3cccs3)c(-c3cccs3)nc2c1 [5c]	Inactive
CC(=O)Nc1ccc2nc(-c3ccccc3)c(-c3ccccc3)nc2c1 [5d]	Inactive
Cc1nc2ccc(NC(=O)Nc3ccccc3)cc2nc1C [5e]	Inactive
O=C(Nc1ccccc1)Nc1ccc2nc(-c3ccco3)c(-c3ccco3)nc2c1 [5f]	54.6 ± 2.6%
O=C(Nc1ccccc1)Nc1ccc2nc(-c3cccs3)c(-c3cccs3)nc2c1 [5g]	Inactive
O=C(Nc1ccccc1)Nc1ccc2nc(-c3ccccc3)c(-c3ccccc3)nc2c1 [5h]	Inactive
Cc1ccc(S(=O)(=O)N(c2ccc3nc(-c4ccco4)c(-c4ccco4)nc3c2)S(=O)(=O)c2ccc(C)cc2)cc1 [5j]	Inactive
Cc1ccc(S(=O)(=O)N(c2ccc3nc(-c4cccs4)c(-c4cccs4)nc3c2)S(=O)(=O)c2ccc(C)cc2)cc1 [5k]	Inactive
Cc1ccc(S(=O)(=O)Nc2ccc3nc(-c4ccccc4)c(-c4ccccc4)nc3c2)cc1 [5l]	Inactive

Tested on: human prostate PC3 tumor cell line
Test: Cell growth inhibition assay (alamar blue)
Assay type: cell-based
Details: PC3, 20 μM, 72 h
Description: as §1, §2

Compound	% Growth inhibition at 20 μM
CC(=O)Nc1ccc2nc(C)c(C)nc2c1 [5a]	21.8 ± 15.1%
CC(=O)Nc1ccc2nc(-c3ccco3)c(-c3ccco3)nc2c1 [5b]	57.7 ± 9.4%
CC(=O)Nc1ccc2nc(-c3cccs3)c(-c3cccs3)nc2c1 [5c]	Inactive
CC(=O)Nc1ccc2nc(-c3ccccc3)c(-c3ccccc3)nc2c1 [5d]	Inactive
Cc1nc2ccc(NC(=O)Nc3ccccc3)cc2nc1C [5e]	Inactive
O=C(Nc1ccccc1)Nc1ccc2nc(-c3ccco3)c(-c3ccco3)nc2c1 [5f]	70.6 ± 1.3%
O=C(Nc1ccccc1)Nc1ccc2nc(-c3cccs3)c(-c3cccs3)nc2c1 [5g]	Inactive
O=C(Nc1ccccc1)Nc1ccc2nc(-c3ccccc3)c(-c3ccccc3)nc2c1 [5h]	Inactive
Cc1ccc(S(=O)(=O)N(c2ccc3nc(-c4ccco4)c(-c4ccco4)nc3c2)S(=O)(=O)c2ccc(C)cc2)cc1 [5j]	Inactive
Cc1ccc(S(=O)(=O)N(c2ccc3nc(-c4cccs4)c(-c4cccs4)nc3c2)S(=O)(=O)c2ccc(C)cc2)cc1 [5k]	Inactive
Cc1ccc(S(=O)(=O)Nc2ccc3nc(-c4ccccc4)c(-c4ccccc4)nc3c2)cc1 [5l]	Inactive
